Our source for the Activity values is ChEMBL document CHEMBL1155170, “Rapid dissemination and diversity of CTX-M extended-spectrum beta-lactamase genes in commensal Escherichia coli isolates from healthy children from low-resource settings in Latin America” (2007).

Experiment [1] deals with Escherichia coli. Description: Antimicrobial activity against CTX-M extended-spectrum beta-lactamase producing commensal Escherichia coli isolates from healthy children assessed as percent resistant isolates by disc diffusion method. Format: functional. Background: A growth-free zone around the sample is the usual read-out of agar diffusion tests.
Experiment [2] concerns Escherichia coli. Description: Antimicrobial activity against CTX-M-15 extended-spectrum beta-lactamase producing commensal Escherichia coli isolates from healthy children assessed as percent resistant isolates by disc diffusion method. Type of experiment: functional.

With `O=C(O)c1cn(C2CC2)c2cc(N3CCNCC3)c(F)cc2c1=O` [CIPROFLOXACIN], the Activity with Escherichia coli [1] was 54%; in the experiment with Escherichia coli [2], 93%.

For `CCn1cc(C(=O)O)c(=O)c2ccc(C)nc21` [NALIDIXIC ACID], the Activity with Escherichia coli [1] is given as 57%; in the experiment with Escherichia coli [2], 93%.

As for `CN(C)[C@@H]1C(O)=C(C(N)=O)C(=O)[C@@]2(O)C(O)=C3C(=O)c4c(O)cccc4[C@@](C)(O)[C@H]3C[C@@H]12` [TETRACYCLINE], the Activity in the experiment with Escherichia coli [1] is 86%.
